The assay can be described thus: Growth inhibition of ATL patient-derived S1T cells after 72 hrs by WST-8 assay. The assay is classed as functional. The settings on record: Homo sapiens. In general terms: Tetrazolium dyes change colour on reduction, which living cells bring about.

Each structure is given as a SMILES string.

The IC50 is the midpoint of a concentration-inhibition curve. Low values mean inhibition by little substance, high ones a need for much substance. `COc1cc(C2C3=C(Cc4cc5c(cc42)OCO5)C(=O)OC3)cc(OC)c1OC` (configuration not stated) came in with an IC50 of 5.1 nM. With `COc1cc(C2C3=C(Cc4c2cc2c(c4OC)OCO2)C(=O)OC3)cc(OC)c1OC` (configuration not stated) the figure was 7 nM.

Source of the values: ChEMBL document CHEMBL4118035, “Total Synthesis of the Claimed Structure of (±)-Hyptinin and Structural Revision of Natural Hyptinin” (J Nat Prod, 2017).
